Assay [1] has as its system J20 mice. The assay is described as follows: Synaptophysin immunostaining, preventive treatment of J20 mice. Format: in vivo, mouse. The text has this: (§1) FIG. 4: Immunostainings of mice hippocampus at 4 months of age (PREVENTION GROUP) with microglial Iba-1, astrocyte GFAP, and synaptic synaptophysin antibodies.
FIG. 27: Synaptophysin immunopositive staining in the hippocampus of mice brains at different times of washout. All sections were immunostained together and automatically with Dako immunostainer.
(§2) We directly tested whether pre-symptomatic inhibition of inflammation in a mouse genetic model of Alzheimer disease can stem the progression of memory and behavioral deficits, and Alzheimer disease-like pathology. The J20 amyloid precursor protein Swedish/Indiana mutant mouse was treated at 2 months of age for a one month period with 50 mg/Kg Caspase-1 inhibitor VX-765 (FIG. 22a).

Assay [2] deals with serum deprived human primary neurons. The assay is described as follows: Neuritic beading in serum-deprived human primary neurons. The class given is cell-based. The procedure: (§3) FIG. 13: VX-765 protects CNS primary human neurons (HPN) against APP- or serum deprivation-mediated neuritic beading. (a) MTT assay with increasing dose of VX-765. (b) Fluorescent micrographs showing homogeneous distribution of EGFP in normal neurons and neuritic beading in APP-transfected neurons. (c) Percentage beading in APP-transfected or serum-deprived neurons treated 1 h before and continuously with stressor (Pre-treatment) or 48 h after stressor (post-beading treatment) with 25 or 50 μM VX-765 or with 5 μM Z-YVAD-fmk Casp1 peptide inhibitor. […] (d-e) HPN secreted or cellular Aβ42/total Aβ38+40+42 (d) (F(3,4)=12.73, p=0.0163, ANOVA, Dunnett's post-hoc compared to Serum+DMSO, *p<0.05), and (e) levels of secreted II-1β, IFN-γ, TNF-α, and II-6 from untreated (+S), serum deprived (−S), or serum-deprived human neurons treated with 25 or 50 μM VX-765.
(§4) EGFP-labeled human primary neurons were either APP^WT transfected or serum deprived. Two treatment strategies were employed to determine VX-765's effects on neuronal degeneration: our Pre-Treatment strategy looked at whether VX-765 could block neuronal degeneration when administered 1 hr prior to APP^WT transfection or serum deprivation, while our Reversal Treatment strategy looked at whether VX-765 could reverse degenerative effects when administered 48 hrs after APP^WT transfection or serum deprivation. Neurons displaying beaded morphology were counted with live imaging and measured as a percentage of the total number of eGFP+ neurons from 24-72 hrs after treatment. The irreversible caspase-1 inhibitor YVAD-fmk was used as positive control in our experiments. Results were obtained from averaging counts for at least 100 eGFP+ neurons per experiment in three independent neuron preparations.

Assay [3] concerns J20 mice. The assay is described as follows: Iba1 and GFAP immunostaining, preventive treatment of J20 mice. The class given is in vivo, mouse.
Description: as §1
FIG. 25: Iba1 immunopositive staining in the mice brain hippocampus at different times of washout (a,b). All sections were immunostained together and automatically with Dako immunostainer and the number of Iba1-immunopositive […] counted stereologically. Statistics done as described in FIG. 10b. (c) Analyses of subtypes of Iba1-immunopositive microglia as described in FIG. 10c.
FIG. 26: GFAP immunopositive staining in the hippocampus of mice brains at different times of washout (a,b). All sections were immunostained together and automatically with Dako immunostainer. Quantitation of GFAP-immunopositive astrocytes was done as described above.
as §2

The target of assay [4] is T1, mouse Casp11 (Mus musculus, UniProt P70343).
T1 sequence (P70343 81-266 limits assumed): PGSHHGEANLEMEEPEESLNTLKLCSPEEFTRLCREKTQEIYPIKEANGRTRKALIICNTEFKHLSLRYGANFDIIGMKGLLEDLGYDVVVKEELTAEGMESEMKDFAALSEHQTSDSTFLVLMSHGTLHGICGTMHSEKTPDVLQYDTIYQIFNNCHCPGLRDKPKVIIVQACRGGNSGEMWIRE
T1 sequence (P70343 286-373 limits assumed): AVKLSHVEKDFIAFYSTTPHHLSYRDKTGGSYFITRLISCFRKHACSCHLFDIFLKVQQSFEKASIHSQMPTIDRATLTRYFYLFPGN
The experiment in a line: Selectivity against mouse Casp11. Format: biochemical. Conditions: recombinant caspases. How it is done: (§5) FIG. 14: Selectivity and blood brain permeability of VX-765 and VRT-043198. (a-b) IC50 of VX-765 (a) and VRT-043198 (b) against human Casp1-10. (c-d) IC50 of VX-765 (c) and VRT-043198 (d) against mouse Casp1 and Casp11. (e) Blood brain barrier permeability and presence of VX-765 and VRT-043198 in 3 wild type and 4 J20 mice brain cortex and hippocampus and in plasma. Ratios of brain levels to plasma levels are calculated.

The subject of assay [5] is human Casp2 to 10. The experiment in a line: Selectivity against human Casp2 to 10. Format: biochemical. Conditions: recombinant caspases. How it is done:
as §5

In assay [6] the target is T2, mouse recombinant Casp1 (Mus musculus, UniProt P29452).
T2 sequence (P29452 119-296 limits assumed): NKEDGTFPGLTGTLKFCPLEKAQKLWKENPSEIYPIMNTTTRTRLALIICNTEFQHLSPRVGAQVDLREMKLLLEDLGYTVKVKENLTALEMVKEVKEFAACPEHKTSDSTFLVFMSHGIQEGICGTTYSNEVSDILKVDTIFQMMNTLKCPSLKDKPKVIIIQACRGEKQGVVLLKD
T2 sequence (P29452 315-402 limits assumed): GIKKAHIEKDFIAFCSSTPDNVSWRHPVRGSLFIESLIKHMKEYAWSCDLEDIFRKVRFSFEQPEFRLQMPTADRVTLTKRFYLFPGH
The assay is described as follows: Caspase inhibition IC50, mouse recombinant Casp1. The class given is biochemical. Particulars: read-out: IC50 against mouse Casp1. The procedure:
as §5

Assay [7] concerns APP^WT-transfected human primary neurons. The experiment in a line: Neuritic beading in APPWT-transfected human primary neurons. The class given is cell-based. How it is done: as §3, §4

Entries after “also recorded” stand apart in the source; their conditions may differ.

By IC50 is commonly meant the concentration that inhibits the measured activity by half. For the molecule `CCO[C@@H]1OC(=O)C[C@@H]1NC(=O)[C@@H]1CCCN1C(=O)[C@@H](NC(=O)c1ccc(N)c(Cl)c1)C(C)(C)C` [VX-765, (S)-1-((S)-2-{[1-(4-amino-3-chloro-phenyl)-methanoyl]-amino}-3,3-dimethyl-butanoyl)-pyrrolidine-2-carboxylic acid ((2R,3S)-2-ethoxy-5-oxo-tetrahydro-furan-3-yl)-amide], the synaptophysin levels entry in assay [1] (4 month old J20 brains) is reported as “impressive preservation of synaptophysin levels”. Further, the synaptophysin immunostaining entry in assay [1] (hippocampus, different times of washout) is “partly re-established”. Moreover, the neuritic beading entry is recorded as “particularly effective in reducing neuritic beading at 72 hrs; also recorded: protected against, albeit less strongly” in assay [2] (pre-treatment 1 h before serum deprivation); “neither YVAD nor VX-765 were able to reverse neuritic beading” in assay [2] (reversal treatment 48 hrs after serum deprivation); “prevented neuritic beading” in assay [7] (pre-treatment 1 h before and continued, VX-765 25 and 50 μM, Z-YVAD-fmk 5 μM, 48 and 72 h). Also, the GFAP astrogliosis entry in assay [3] (4 month old J20 brains) is reported as “possibly GFAP astrogliosis”. The “microglial Iba1 positive inflammation” value in assay [3] (4 month old J20 brains) is “reduced microglial Iba1 positive inflammation”. For the same molecule, the “astrocytic GFAP immunostaining” value in assay [3] (different times of washout) was “does not reach statistical significance”. The “Iba1 positive microglial inflammation” value in assay [3] (hippocampus and cortex, different times of washout) is “strongly decreased microglial inflammation”. For the same molecule, the subtype of microglia entry in assay [3] (up to the 12 week washout, hippocampus and cortex) is “restores resting microglia numbers”. The “inhibition of mouse Casp1 compared to mouse Casp11” value in assay [4] is “strongly inhibited compared to inflammatory mouse Casp11”. In assay [5], the “inhibition of human Casp1 relative to human Casp2 to 10” value is “potently and specifically inhibited”. In addition, the IC50 in assay [6] worked out at 52.1 nM. In assay [7] (pre-treatment 1 hr prior, 48 hrs and 72 hrs post transfection, vs DMSO), the “reduction in neuritic beading” value is 40%.

Values taken from patent US11160788B2, “Caspase-1 inhibition and uses thereof for prevention and treatment of neurological conditions” (priority 2016, dated 2021).
